Laboratory results taken from patent publication US12139815B2, “Methods for rapid detection of immunogenic epitopes in biothreat agents and emerging pathogens for peptide vaccines and therapeutics” (priority 2021, dated 2024).

System: antibodies from sera of mice immunized with Ft-ΔclpB
Assay type: binding, mouse

Sequence	enrichment in Experiment samples relative to Control samples (in words)
DNTTIIDGAGEK [SEQ ID NO: 7]	enriched
EGVITVEEGK (listed as Francisella tularensis) [SEQ ID NO: 8]	enriched
